Results: US20070049564A1 (Wyeth, priority 2005, published 2007)
Values after ≈ are worked out from the molar mass of the structure shown. Where two headings read alike, the source gives them in different places.

Experiments:
E. faecium GC 2243 = assay: MIC, broth microdilution; settings: Enterococcus faecium
Staph. aureus Smith = assay: In vivo activity (oral, iv; ED50) against Staph. aureus Smith in mice
Description: Representative examples of compounds of Formula I were tested for the oral efficacy using S. aureus Smith in mice.

S. pyogenes GC 4563 = assay: MIC, broth microdilution; settings: Streptococcus pyogenes
S. pneumoniae* GC 4465 = assay: MIC, broth microdilution; settings: Streptococcus pneumoniae
E. faecalis GC 2267 = assay: MIC, broth microdilution; settings: Enterococcus faecalis
S. aureus GC 1079 = assay: MIC, broth microdilution; settings: Staphylococcus aureus
S. typhimurium GC 2172 = assay: MIC, broth microdilution; settings: Salmonella enterica, TYPHIMURIUM
S. aureus GC 1131 = assay: MIC, broth microdilution; settings: Staphylococcus aureus
E. coli GC 2234 = assay: MIC, broth microdilution; settings: Escherichia coli
E. coli GC 2231 = assay: MIC, broth microdilution; settings: Escherichia coli
Description: (§1) Antimicrobial susceptibility testing. The in vitro activities of the antibiotics are determined by the broth microdilution method as recommended by the National Committee for Clinical Laboratory Standards (NCCLS) (1). Mueller-Hinton II broth (MHBII)(BBL Cockeysville, Md.) is the medium employed in the testing procedures. Microtiter plates containing serial dilutions of each antimicrobial agent are inoculated with each organism to yield the appropriate density (10^5 CFU/ml) in a 100 μl final volume. The plates are incubated for 18-22 hours at 35° C. in ambient air.
Representative compounds were first incubated in mouse serum for an hour prior to the in vitro testing against a panel of selected gram-positive and gram-negative bacteria strains. All compounds were also pre-incubated in water for an hour prior to testing as control.

S. aureus GC 2216 = assay: MIC, broth microdilution; settings: Staphylococcus aureus
S. pneumoniae+ GC 4465 = assay: MIC, broth microdilution; settings: Streptococcus pneumoniae
c. albicans GC 3066 = assay: MIC, broth microdilution
E. coli GC 3226 = assay: MIC, broth microdilution; settings: Escherichia coli
E. faecium GC 4556 = assay: MIC, broth microdilution; settings: Enterococcus faecium
E. coli GC 2272 = assay: MIC, broth microdilution; settings: Escherichia coli
S. aureus GC 6466 = assay: MIC, broth microdilution; settings: Staphylococcus aureus
E. coli GC 2232 = assay: MIC, broth microdilution; settings: Escherichia coli
Description: as §1
Representative compounds were first incubated in mouse serum for an hour prior to the in vitro testing against a panel of selected gram-positive and gram-negative bacteria strains. All compounds were also pre-incubated in water for an hour prior to testing as control. Representative compounds of Formula I were incubated in human serum prior to MIC determination.

S. aureus GC 6335 = assay: MIC, broth microdilution; settings: Staphylococcus aureus
S. epidermidis GC 4935 = assay: MIC, broth microdilution; settings: Staphylococcus epidermidis
[1] = read-out: MINIMAL INHIBITORY CONCENTRATION MIC, Human Serum
[2] = read-out: MINIMAL INHIBITORY CONCENTRATION MIC, Mouse Serum
[3] = read-out: MINIMAL INHIBITORY CONCENTRATION MIC, Water

Q: What does the source list for CN(C)c1cc(NC(=O)CN(C(=O)OCOC(=O)C2CCCCC2)C(C)(C)C)c(O)c2c1C[C@H]1C[C@H]3[C@H](N(C)C)C(O)=C(C(N)=O)C(=O)[C@@]3(O)C(O)=C1C2=O [Example 50, ({[(2-{[(5aR,6aS,7S,10aS)-9-(aminocarbonyl)-4,7-bis(dimethylamino)-1,8,10a,11-tetrahydroxy-10,12-dioxo-5,5a,6,6a,7,10,10a,12-octahydrotetracen-2-yl]amino}-2-oxoethyl)(tert-butyl)amino]carbonyl}oxy)methyl cyclohexanecarboxylate]?
A: MIC (E. faecium GC 2243; GC2243, read-out: MINIMAL INHIBITORY CONCENTRATION MIC, Human Serum): 0.25 µg/mL (≈ 0.325 µM); MIC (E. faecium GC 2243; GC2243, read-out: MINIMAL INHIBITORY CONCENTRATION MIC, Mouse Serum): 0.25 µg/mL (≈ 0.325 µM); MIC (E. faecium GC 2243; GC2243, read-out: MINIMAL INHIBITORY CONCENTRATION MIC, Water): 0.5 µg/mL (≈ 0.649 µM); ED50 (Staph. aureus Smith; Staphylococcus aureus, in Mus musculus, iv, read-out: ED50 SIV (Staph aureus Smith)): 1.65 mg/kg; ED50 (Staph. aureus Smith; Staphylococcus aureus, in Mus musculus, po, read-out: ED50 SOD (Staph aureus Smith)): 16.9 mg/kg; ED50 (Staph. aureus Smith; Staphylococcus aureus, in Mus musculus, po, read-out: ED50 Staph Smith SOD): 16.9 mg/kg; ED50 (Staph. aureus Smith; iv, read-out: ED50 Staph Smith SIV): 1.65 mg/kg; MIC (S. pyogenes GC 4563; GC4563, read-out: MINIMAL INHIBITORY CONCENTRATION MIC, Human Serum): 0.12 µg/mL (≈ 0.156 µM); MIC (S. pyogenes GC 4563; GC4563, read-out: MINIMAL INHIBITORY CONCENTRATION MIC, Mouse Serum): 0.12 µg/mL (≈ 0.156 µM); MIC (S. pyogenes GC 4563; GC4563, read-out: MINIMAL INHIBITORY CONCENTRATION MIC, Water): 0.25 µg/mL (≈ 0.325 µM); MIC (S. pneumoniae* GC 4465; [1]): < 0.06 µg/mL; MIC (S. pneumoniae* GC 4465; [2]): < 0.06 µg/mL; MIC (S. pneumoniae* GC 4465; [3]): < 0.06 µg/mL; MIC (E. faecalis GC 2267; GC2267, read-out: MINIMAL INHIBITORY CONCENTRATION MIC, Human Serum): 2 µg/mL (≈ 2.6 µM); MIC (E. faecalis GC 2267; GC2267, read-out: MINIMAL INHIBITORY CONCENTRATION MIC, Mouse Serum): 1 µg/mL (≈ 1.3 µM); MIC (E. faecalis GC 2267; GC2267, read-out: MINIMAL INHIBITORY CONCENTRATION MIC, Water): 4 µg/mL (≈ 5.2 µM); MIC (S. aureus GC 1079; GC1079, read-out: MINIMAL INHIBITORY CONCENTRATION MIC, Human Serum): 0.5 µg/mL (≈ 0.649 µM); MIC (S. aureus GC 1079; GC1079, read-out: MINIMAL INHIBITORY CONCENTRATION MIC, Mouse Serum): 0.5 µg/mL (≈ 0.649 µM); MIC (S. aureus GC 1079; GC1079, read-out: MINIMAL INHIBITORY CONCENTRATION MIC, Water): 2 µg/mL (≈ 2.6 µM); MIC (S. typhimurium GC 2172; [1]): 32 µg/mL (≈ 41.6 µM); MIC (S. typhimurium GC 2172; [2]): 4 µg/mL (≈ 5.2 µM); MIC (S. typhimurium GC 2172; [3]): > 64 µg/mL; MIC (S. aureus GC 1131; GC1131, read-out: MINIMAL INHIBITORY CONCENTRATION MIC, Human Serum): 0.5 µg/mL (≈ 0.649 µM); MIC (S. aureus GC 1131; GC1131, read-out: MINIMAL INHIBITORY CONCENTRATION MIC, Mouse Serum): 0.5 µg/mL (≈ 0.649 µM); MIC (S. aureus GC 1131; GC1131, read-out: MINIMAL INHIBITORY CONCENTRATION MIC, Water): 1 µg/mL (≈ 1.3 µM); MIC (E. coli GC 2234; GC2234, read-out: MINIMAL INHIBITORY CONCENTRATION MIC, Human Serum): 8 µg/mL (≈ 10.4 µM); MIC (E. coli GC 2234; GC2234, read-out: MINIMAL INHIBITORY CONCENTRATION MIC, Mouse Serum): 1 µg/mL (≈ 1.3 µM); MIC (E. coli GC 2234; GC2234, read-out: MINIMAL INHIBITORY CONCENTRATION MIC, Water): 64 µg/mL (≈ 83.1 µM); MIC (E. coli GC 2231; GC2231, read-out: MINIMAL INHIBITORY CONCENTRATION MIC, Human Serum): 8 µg/mL (≈ 10.4 µM); MIC (E. coli GC 2231; GC2231, read-out: MINIMAL INHIBITORY CONCENTRATION MIC, Mouse Serum): 1 µg/mL (≈ 1.3 µM); MIC (E. coli GC 2231; GC2231, read-out: MINIMAL INHIBITORY CONCENTRATION MIC, Water): 64 µg/mL (≈ 83.1 µM); MIC (S. aureus GC 2216; GC2216, read-out: MINIMAL INHIBITORY CONCENTRATION MIC, Human Serum): 0.5 µg/mL (≈ 0.649 µM); MIC (S. aureus GC 2216; GC2216, read-out: MINIMAL INHIBITORY CONCENTRATION MIC, Mouse Serum): 1 µg/mL (≈ 1.3 µM); MIC (S. aureus GC 2216; GC2216, read-out: MINIMAL INHIBITORY CONCENTRATION MIC, Water): 2 µg/mL (≈ 2.6 µM); MIC (S. pneumoniae+ GC 4465; [1]): 0.5 µg/mL (≈ 0.649 µM); MIC (S. pneumoniae+ GC 4465; [2]): 0.5 µg/mL (≈ 0.649 µM); MIC (S. pneumoniae+ GC 4465; [3]): 0.5 µg/mL (≈ 0.649 µM); MIC (c. albicans GC 3066; Candida albicans, GC3066, read-out: MINIMAL INHIBITORY CONCENTRATION MIC): > 64 µg/mL; MINIMAL INHIBITORY CONCENTRATION MIC (c. albicans GC 3066; Human Serum): >64 UG/ML; MINIMAL INHIBITORY CONCENTRATION MIC (c. albicans GC 3066; Mouse Serum): >64 UG/ML; MIC (E. coli GC 3226; GC3226, read-out: MINIMAL INHIBITORY CONCENTRATION MIC, Human Serum): 8 µg/mL (≈ 10.4 µM); MIC (E. coli GC 3226; GC3226, read-out: MINIMAL INHIBITORY CONCENTRATION MIC, Mouse Serum): 1 µg/mL (≈ 1.3 µM); MIC (E. coli GC 3226; GC3226, read-out: MINIMAL INHIBITORY CONCENTRATION MIC, Water): 32 µg/mL (≈ 41.6 µM); MIC (E. faecium GC 4556; GC4556, read-out: MINIMAL INHIBITORY CONCENTRATION MIC, Human Serum): 1 µg/mL (≈ 1.3 µM); MIC (E. faecium GC 4556; GC4556, read-out: MINIMAL INHIBITORY CONCENTRATION MIC, Mouse Serum): 1 µg/mL (≈ 1.3 µM); MIC (E. faecium GC 4556; GC4556, read-out: MINIMAL INHIBITORY CONCENTRATION MIC, Water): 2 µg/mL (≈ 2.6 µM); MIC (E. coli GC 2272; GC2272, read-out: MINIMAL INHIBITORY CONCENTRATION MIC, Human Serum): 4 µg/mL (≈ 5.2 µM); MIC (E. coli GC 2272; GC2272, read-out: MINIMAL INHIBITORY CONCENTRATION MIC, Mouse Serum): 1 µg/mL (≈ 1.3 µM); MIC (E. coli GC 2272; GC2272, read-out: MINIMAL INHIBITORY CONCENTRATION MIC, Water): 32 µg/mL (≈ 41.6 µM); MIC (S. aureus GC 6466; GC6466, read-out: MINIMAL INHIBITORY CONCENTRATION MIC, Human Serum): 0.25 µg/mL (≈ 0.325 µM); MIC (S. aureus GC 6466; GC6466, read-out: MINIMAL INHIBITORY CONCENTRATION MIC, Mouse Serum): 0.25 µg/mL (≈ 0.325 µM); MIC (S. aureus GC 6466; GC6466, read-out: MINIMAL INHIBITORY CONCENTRATION MIC, Water): 0.25 µg/mL (≈ 0.325 µM); MIC (E. coli GC 2232; GC2232, read-out: MINIMAL INHIBITORY CONCENTRATION MIC, Human Serum): 8 µg/mL (≈ 10.4 µM); MIC (E. coli GC 2232; GC2232, read-out: MINIMAL INHIBITORY CONCENTRATION MIC, Mouse Serum): 1 µg/mL (≈ 1.3 µM); MIC (E. coli GC 2232; GC2232, read-out: MINIMAL INHIBITORY CONCENTRATION MIC, Water): 32 µg/mL (≈ 41.6 µM); MIC (S. aureus GC 6335; GC6335, read-out: MINIMAL INHIBITORY CONCENTRATION MIC, Human Serum): 1 µg/mL (≈ 1.3 µM); MIC (S. aureus GC 6335; GC6335, read-out: MINIMAL INHIBITORY CONCENTRATION MIC, Mouse Serum): 1 µg/mL (≈ 1.3 µM); MIC (S. aureus GC 6335; GC6335, read-out: MINIMAL INHIBITORY CONCENTRATION MIC, Water): 1 µg/mL (≈ 1.3 µM); MIC (S. epidermidis GC 4935; GC4935, read-out: MINIMAL INHIBITORY CONCENTRATION MIC, Human Serum): 2 µg/mL (≈ 2.6 µM); MIC (S. epidermidis GC 4935; GC4935, read-out: MINIMAL INHIBITORY CONCENTRATION MIC, Mouse Serum): 2 µg/mL (≈ 2.6 µM); MIC (S. epidermidis GC 4935; GC4935, read-out: MINIMAL INHIBITORY CONCENTRATION MIC, Water): 4 µg/mL (≈ 5.2 µM)
